Reference: US6288110A, “Pharmaceutical compositions comprising disulfiram” (Yeda Research and Development Co Ltd., priority 1998, dated 2001)
“Also recorded” adds a separate entry of the source.

What was measured:
all cell types examined = test: DNA synthesis, all cell types examined, higher concentrations; type: cell-based; settings: >10 μM, all cell types examined (not shown)
Protocol: C6 rat glioma cells were plated in 96-well plates (Nunc, Denmark) (5000 cells per well) in DMEM with 5% FCS. After 6 hours the cells were rinsed and incubated for 48 hours in serum free medium. 5% FCS or growth factors were then added to the cells for 24 hours (triplicates). ^3 H-methyl-thymidine (5μCi/ml) (Rotem Ind. Ltd., Israel) was added to the cells for the last 14 hours. The cells were rinsed with 100 μl methanol for 10 minutes, followed by 200 μl 5% trichloroacetic acid, and then rinsed and lysed with 150 μl 0.3M NaOH. Radioactive thymidine incorporated into the DNA was determined for 1 min with 3 ml scintillation liquid (ULTIMA GOLD Packard) in a β-counter. DNA synthesis assays were performed in triplicates.
Bovine capillary endothelial cells (BCE) and bovine aortic BSMC were plated in 24-well plates (6000 cells per well) in 500 μl DMEM medium supplemented with 10% Colorado calf serum (CCS) (GIBCO, USA) and GPS. After 24 hours, medium was changed to starvation medium (2% CCS, 0.5% BSA, GPS) for 24 hours. ^3 H-methyl-thymidine (5 μCi/ml) was added for the last 6 hours. DNA synthesis assays were performed as described above, in triplicates. […]
Disulfiram was prepared in 0.1 mM stock solutions in DMSO. […] Inhibition was calculated as percentage of DNA synthesis of control.

[1] = system: capillary endothelial (BCE) cells; test: TUNEL assay for apoptosis, BCE cells; type: cell-based, bovine; settings: 1 μM, 6 hours
Protocol: Cells were cultured on microscope slides for 48 hours in presence of growth media as described above, until reaching 40-50% confluency. Disulfiram was then added to the cells for 6 hours or for 20 hours in the case of BALB/MK keratinocytes, fixed with 4% paraformaldehyde and washed three times with PBS. Apoptosis was analyzed by the in situ TUNEL staining carried out as described (Wride, 1994). Briefly, microscope slides were incubated for 15 min in 2×SSC buffer at 60° C., washed in DDW and incubated with 20 μg/ml proteinase K (Boehringer Mannheim) for 15 min at room temperature. After a wash with DDW, endogenous peroxidases were inactivated by incubating the slides with 2% H2 O2 in PBST (PBS with 0.05% Tween 20) for 10 min at room temperature. Slides were then incubated in TdT buffer (Boehringer Mannheim) for 5 min at room temperature, and a reaction mixture containing 5×TdT buffer and 1 μl biotin-21-dUTP (Clontech, 1 mM stock) and 8 units of the TdT enzyme (Boehringer Mannheim) in total volume of 50 μl was subsequently added. The reactions were carried out at 37° C. for 1.5 hr in a humid chamber. The slides were washed in 2×SSC, DDW and finally with PBS and covered with 10% skim milk in PBST for 15 min. […]

fibroblasts = test: Induction of apoptosis, fibroblasts; type: cell-based
C6 rat glioma tumor = test: Growth of C6 glioma tumors in nude mice; type: in vivo, CD1 nude male mice; C6 rat glioma cells; settings: 30 days; for Tumor weight / % inhibition (tumor growth): per os 3 times per week; for Tumor weight: n=8, mean ± SEM, control 1.37 ± 0.21
Protocol: C6 rat glioma cells (10^6) were injected subcutaneously into the back of the neck of CD1 nude male mice. After 3 days, 1 ml of aqueous solutions with or without 0.1-0.5 mM disulfiram (25-120 μg) was introduced per os to the mice using a feeding needle. Mice were orally fed three times per week. Tumors were removed 30 days following C6 cells injection, weighed, fixed in buffered formalin and histological sections were prepared. Each experimental group included 8 animals, and experiments were repeated twice.
Tumors from mice fed systemically 3 times a week with disulfiram were weighed 30 days following administration of C6 rat glioma cells to CD1 nude mice. […] Experiments were repeated twice (n=8).

[2] = system: Lewis lung (D122) metastasis in the lungs; test: Lewis lung carcinoma metastasis, i.v. model; type: in vivo, C57/BL mice
Excerpt: The Lewis lung carcinoma (3LL), which originated spontaneously in a C57/BL/6J (H-2^b) mouse, is a malignant tumor that produces spontaneous lung metastases. The metastatic clone D122, kindly provided by Prof. Lea Eisenbach (Weizmann Institute of Science, Rehovot, Israel), was used herein for tissue culture and for in vivo experiments. The cell cultures were maintained in DMEM supplemented with 10% heat-inactivated FCS, glutamine, antibiotics, sodium pyruvate and nonessential amino acids.
To distinguish between the effect on the migration of the cells from the main tumor and the development of a tumor from a metastatic foci, the i.v. model was used. D122 cells (5×10^5) were injected i.v. to the tail of C57/B1 male mice and after 24 days mice were killed and their lungs weighed. Treatment with disulfiram was started 3 days following the injection of D122 cells. […]
To distinguish between the effect on the migration of the cells from the main tumor and the development of a tumor from a metastatic foci, the i.v. metastastis model was used as described in section (f) of materials and Methods above. D122 cells were injected i.v. to the tail of C57/B1 male mice. Three days after, disulfiram was administered to the mice per os 3 times per week, at concentrations of 13-40 μg/mouse.

intestinal cancer = settings: azoxymethane, rats; cited from earlier work
[3] = system: neoplasia of the large bowl; settings: 1,2-dimethylhydrazine; cited from earlier work
[4] = system: metabolism of the carcinogen azomethane; settings: cited from earlier work
mammary tumors = settings: N-2-fluorenylacetamide or N-hydroxy-N-2-fluorenylacetamide, rats; cited from earlier work
[5] = system: toxic side effects of HECNU; settings: rats; cited from earlier work
rats = settings: 0.05% in diet for 2 years; cited from earlier work
[6] = in vivo; cited from earlier work

In the case of CCN(CC)C(=S)SSC(=S)N(CC)CC [disulfiram, Bis(diethylthiocarbamoyl) disulfide], the “inhibition at higher concentrations” value (all cell types examined) was “became less inhibitory”, the “apoptosis by TUNEL method” value [1] was “labeled; also recorded: induced into apoptosis” and the induction of apoptosis (fibroblasts) was “fails to induce apoptosis”. For the same molecule, the Tumor weight (C6 rat glioma tumor; 25 μg, p = 0.003) was 0.59 ± 0.08 g, the “% inhibition (tumor growth)” value (C6 rat glioma tumor; 25 μg/mouse, p = 0.003) was 57% and the Tumor weight (C6 rat glioma tumor; 120 μg, p < 0.05) was 0.84 ± 0.18 g. For the same molecule, the “% inhibition (tumor growth)” value (C6 rat glioma tumor; 120 μg/mouse, p < 0.05) was 38%, the “tumor size compared with water-fed control (in words)” value (C6 rat glioma tumor; fed 3 times a week, n=8) was “significantly smaller” and the “metastasis in the lungs compared with water-fed control (in words)” value ([2]; 13-40 μg, 3 times a week, 24 days, n=6, p=0.023-0.037) was “significantly smaller”. For the same molecule, the “inhibition of the development of metastatic foci in the lungs” value ([2]; 13-40 μg/mouse per os 3 times per week) was 83-95%, the “decrease of metastasis to the lungs” value ([2]; 13-40 μg/mouse, 3 times a week, 24 days) was 6-19 fold and the “interference with induction of intestinal cancer” value (intestinal cancer) was “interfere with induction of cancer”. For the same molecule, the “interference with neoplasia of the large bowl” value [3] was “interfere with induction of cancer”, the “inhibition of azomethane metabolism” value [4] was “inhibited the metabolism” and the “incidence of mammary tumors” value (mammary tumors) was “reduce the incidence of mammary tumors”. The “effect on anti-tumor potency of HECNU” value [5] was “without inhibiting its anti-tumor potency”, the “protection against toxic side effects of HECNU” value [5] was “protected rats” and the “increase of any tumor type” value (rats) was “did not increase any tumor type”. The “conversion into main metabolite diethyldithiocarbamate (DDC)” value [6] was “quickly converted”.
